Several values for one entry are separate records, joined by “and”; a condition that tells them apart may be missing. Equal values may be shown once. Entries after “also recorded” stand apart in the source; their conditions may differ. Read-outs that look alike come from different tables or passages of the source.
How the values were obtained:
[1] = Brain concentrations 1 h after intranasal administration in rats (single time point); assay type: in vivo; details: rat, 30 mg/kg i.n., 1 hr post dose; for concentration at 1 h: male, Wistar, in vivo, 30 mg/kg
[2] = target: glutamate carboxypeptidase II (GCP-II) (Homo sapiens, UniProt Q04609); details: GCP-II inhibition, Table 1; read-out: Potency (IC50); cited from earlier work
[3] = purified enantiomers, intranasal
Experimental: Rodent i.n. and i.p. dosing: Studies were conducted in male Wistar rats (6-8 weeks; weighing between 200 gm to 250 gm) obtained from Harlan® Laboratories (Indianapolis, Ind.) that were maintained in a controlled environment and allowed food and water ad libitum. Intranasal administrations were performed according to previously described methods with minor modifications. Briefly, rats were anesthetized with a 1-1.5 mL intraperitoneal (i.p.) dose of 10% chloral hydrate (approved under the protocol RA #13), and kept under anesthesia with additional chloral hydrate as needed throughout the entire experiment. To prevent drainage of nasally dosed solution, the nasal cavity was isolated from the respiratory and gastrointestinal tracts. An incision was made along the neck, and the trachea isolated and transected. The upper part was tied off with a 3-0 silk suture, and the lower part cannulated with PE240 tubing to aid air breathing. Rats were maintained lying on their back, and in this position, given 10 μL (375 mg/mL) of the experimental drug solution per nostril using a micro-syringe connected to 1.5 cm PE-10 tube. The total dose received was 30 mg/kg for each drug solution.
Briefly, prior to extraction, frozen samples were thawed on ice. For plasma samples, 50 μL of the calibration standard or sample were transferred into silanized vials. For brain tissues, the samples were weighed in a 1.7 mL silanized vials to which 4 times the volume of methanol (dilution 1:5) was added. The tissues were stored in −20° C. for 1 h and then homogenized. The calibration curves were developed using plasma and brain from untreated animals as a matrix. For plasma, sample preparation involved a single liquid extraction by addition of 300 μL of methanol as extraction solution with internal standard, followed by vortexing for 30 s and then centrifugation at 12000×g for 10 min. Supernatant was transferred and evaporated to dryness at 40° C. under a gentle stream of nitrogen. For brain tissue, homogenized samples were vortexed and centrifuged as above, and 100 μL supernatant was mixed with 100 μL of internal standard in methanol, and then evaporated to dryness at 40° C. under a gentle stream of nitrogen. […] For derivatization, the residue was reconstituted with 100 μL of n-butanol with 3N HCl and samples were vortexed. The samples were heated at 60° C. in a shaking water bath for 30 min. At the end of 30 min, the derivatized samples were dried under a gentle stream of nitrogen. […] The samples were vortexed and centrifuged. Supernatant (75 μL) was transferred to a 250 μL polypropylene autosampler vial sealed with a Teflon cap and a volume of 10 μL was injected onto the ultral l performance liquid chromatography (UPLC) instrument for quantitative analysis using a temperature-controlled autosampler operating at 10° C.
Chromatographic analysis was performed using an Accela™ ultra high-performance system consisting of an analytical pump, and an autosampler coupled with TSQ Vantage mass spectrometer (Thermo Fisher Scientific Inc., Waltham Mass.). […] The mobile phase was composed of 0.1% formic acid in acetonitrile and 0.1% formic acid in H2O with gradient elution. The total run time for each analyte was 5.0 min.

[4] = non-human primates; halted development; cited from earlier work
[5] = Pharmacokinetics of i.p. versus i.n. administered 2-PMPA in rat plasma and brain tissues; assay type: in vivo; details: 30 mg/kg i.n.; for Kp: male, Wistar, other: intranasal, 30 mg/kg
[6] = as above; assay type: in vivo
Experimental: For i.p. studies, 2-PMPA was administered as a single i.p. dose. All dosing solutions were prepared on the day of the experiment in 50 mM HEPES buffered saline, and pH adjusted to 7.4 before injection. At various time points following drug administration (0.16 h, 0.5 h, 1 h, 3 h, 5 h) post dose, animals (n=3 per time point, except 3 h n=2 animals) were euthanized with CO2, and blood samples were collected in heparinized microtubes by cardiac puncture and tissues (olfactory bulb, frontal cortex, and cerebellum) were dissected and immediately flash frozen (−80° C.). Plasma was prepared by centrifugation immediately after collection of blood samples. All samples were stored in −80° C. until bioanalysis.
The samples were vortexed and centrifuged.
The maximum plasma concentration (Cmax) and time to Cmax (Tmax) were the observed values. The area under the plasma concentration time curve (AUC) value was calculated to the last quantifiable sample (AUClast) by use of the log linear trapezoidal rule. The brain-to-plasma partition coefficients were calculated as a ratio of their AUCs (AUC0-t, brain/AUC0-t, plasma). The elimination half-life (t1/2) was determined by dividing 0.693 by λz.

[7] = Plasma and CSF exposure after i.n. administration in non-human primate; details: cynomolgus monkey, 30 min post dose
Experimental: A male cynomolgus monkey (approximately 3.5 kg, non-drug naive) was housed in a stainless steel cage (size 30″ (76.2 cm) wide×31″ (78.74 cm) deep×31.5″ (80.01 cm) high) maintaining temperature of 64-84° F. (17.8° C.-28.9° C.), humidity of 30-70% with alternating 12-hour light/dark cycle as per the USDA Animal Welfare Act (9 CFR, Parts 1, 2, and 3).
The monkey was sedated with 45 mg of ketamine and 0.25 mg of midazolam given as an intramuscular injection prior to test article administration. Sedation was maintained through blood and cerebrospinal fluid (CSF) sample collections with ketamine/midazolam at a starting rate of 20 mg/kg/hr ketamine and 0.4 mg/kg/hr midazolam. […] The device was actuated for a period of 2 min in one nostril (depositing 100 μL). The nose piece was cleaned with a mist of air and then the same procedure was performed in the second nostril (100 μL). Total dose delivered was 100 mg. CSF sample (target of 50 μL) was obtained by an indwelling cannula placed in the intrathecal space at the cisterna magna at 0.5 h post dose. Blood was collected via venipuncture of the femoral vein at 0.5 h post dose and plasma was obtained by low speed centrifugation at 1500×g for 10 minutes. The plasma was flash-frozen on dry ice after separation. Plasma and CSF samples were stored in a freezer set at −70° C., until bioanalysis.
Standard curves were generated in blank artificial CSF. Calibration curves were constructed in the range of 0.113-22.6 μg/mL. Samples were analyzed on Agilent QTOF mass spectrometer by LC/MS. Samples (20 μL) were injected and separated on an Agilent 1290 LC equipped with an Agilent Eclipse Plus C18 column (2.1×100 mm) packed with 1.8 micron stationary phase. The mobile phase consisted of 0.1% formic acid in water and 0.1% formic acid in acetonitrile with an isocratic elution at 2.5% organic. […] Calibration curves were generated with a correlation coefficient >0.99 in a similar manner as described above.

GCP-II = target: T1, GCP-II (Rattus norvegicus, UniProt P70627); experiment: Ex vivo GCP-II enzymatic (NAAG hydrolyzing) activity in rodent brain tissue after i.n. administration
T1 construct: from tissue; host or cells: rat brain (olfactory bulb, cortex, cerebellum), sonicated in Tris buffer, supernatant
Experimental: Rodent ex vivo GCP-II enzymatic activity: One half of the brain tissues collected following i.n. administration (lh post dose) was used to determine GCP-II NAAG hydrolyzing activity. In brief, tissues were weighed and immersed in 0.5 mL of ice-cold 50 mM Tris Buffer (pH 7.7 at RT). Each tissue was sonicated for 30-60 seconds using an ultrasonic cell disrupter. After a 2 minute spin at 13,000 g, supernatants were analyzed for protein content and NAAG-hydrolyzing activity measurements were performed as previously described (Rojas et al., 2012; Robinson et al., 1987).

[8] = ex vivo, 1 h after 30 mg/kg i.n., relative to untreated control rats

T1 sequence (P70627 whole entry): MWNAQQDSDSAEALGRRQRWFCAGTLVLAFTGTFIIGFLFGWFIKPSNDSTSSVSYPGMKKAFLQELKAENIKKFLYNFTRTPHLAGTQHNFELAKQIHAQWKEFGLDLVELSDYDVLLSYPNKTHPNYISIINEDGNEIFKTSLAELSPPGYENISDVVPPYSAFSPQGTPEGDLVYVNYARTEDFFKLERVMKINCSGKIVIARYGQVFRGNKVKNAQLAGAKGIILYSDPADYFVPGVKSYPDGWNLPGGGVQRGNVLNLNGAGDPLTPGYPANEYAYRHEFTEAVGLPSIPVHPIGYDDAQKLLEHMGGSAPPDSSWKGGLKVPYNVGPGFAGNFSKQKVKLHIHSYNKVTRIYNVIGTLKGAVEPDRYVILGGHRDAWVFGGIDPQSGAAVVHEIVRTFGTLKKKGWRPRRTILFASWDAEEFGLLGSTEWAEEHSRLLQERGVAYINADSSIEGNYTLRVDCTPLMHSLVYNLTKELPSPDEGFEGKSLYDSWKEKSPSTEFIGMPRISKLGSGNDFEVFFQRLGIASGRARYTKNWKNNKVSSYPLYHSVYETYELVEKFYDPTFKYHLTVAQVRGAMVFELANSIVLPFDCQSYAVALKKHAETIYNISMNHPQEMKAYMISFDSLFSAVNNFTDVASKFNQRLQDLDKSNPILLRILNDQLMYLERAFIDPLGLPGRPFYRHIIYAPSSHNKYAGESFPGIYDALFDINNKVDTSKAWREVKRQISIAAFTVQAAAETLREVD
glutamate carboxypeptidase II (GCP-II), sequence (Q04609 whole entry, species assumed): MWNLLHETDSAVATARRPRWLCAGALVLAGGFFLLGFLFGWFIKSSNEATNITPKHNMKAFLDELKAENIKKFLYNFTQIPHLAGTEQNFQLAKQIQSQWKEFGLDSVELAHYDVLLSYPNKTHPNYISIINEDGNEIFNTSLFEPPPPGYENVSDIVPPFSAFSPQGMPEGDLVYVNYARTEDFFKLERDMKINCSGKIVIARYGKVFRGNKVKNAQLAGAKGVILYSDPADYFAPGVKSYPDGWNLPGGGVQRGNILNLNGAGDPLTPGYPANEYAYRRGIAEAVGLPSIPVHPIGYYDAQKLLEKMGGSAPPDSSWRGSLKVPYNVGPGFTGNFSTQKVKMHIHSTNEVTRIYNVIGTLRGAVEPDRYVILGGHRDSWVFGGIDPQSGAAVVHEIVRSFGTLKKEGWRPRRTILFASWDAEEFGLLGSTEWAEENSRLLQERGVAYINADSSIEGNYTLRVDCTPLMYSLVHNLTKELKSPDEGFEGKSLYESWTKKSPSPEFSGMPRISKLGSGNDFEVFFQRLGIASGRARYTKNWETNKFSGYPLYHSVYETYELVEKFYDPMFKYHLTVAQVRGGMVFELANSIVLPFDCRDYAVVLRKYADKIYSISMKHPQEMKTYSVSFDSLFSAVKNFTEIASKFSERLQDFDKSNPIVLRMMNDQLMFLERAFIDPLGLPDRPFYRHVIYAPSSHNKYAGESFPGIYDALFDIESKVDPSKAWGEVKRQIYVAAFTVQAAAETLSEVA

Q: With “N-[N-[(S)-1,3-dicarboxypropyl]carbamoyl]-L-cysteine [DCMC]” as the compound, how does the concentration in cerebellum [1] read?
A: The concentration in cerebellum was 0.20 µg/g.

Q: And the concentration in cortex [1]?
A: The concentration in cortex was 2.03 µg/g.

Q: And the “concentration in olfactory bulb” value [1]?
A: The value was 2.12 µg/g.

Q: What about the IC50 [2] of the same compound?
A: The IC50 was 3.1 nM.

Q: With `O=C(O)CC[C@@H](CP(=O)(O)O)C(=O)O` [R-2-PMPA] as the compound, how does the concentration in cerebellum [3] read?
A: The concentration in cerebellum was 1.78 µg/g.

Q: And the concentration in cortex [3]?
A: Its concentration in cortex is 10.1 µg/g.

Q: What about the “concentration in olfactory bulb” value [3] of the same compound?
A: The value was 19.3 µg/g.

Q: Which concentration in cerebellum [3] does the source give for `O=C(O)CC[C@H](CP(=O)(O)O)C(=O)O` [S-2-PMPA] here?
A: The concentration in cerebellum was 2.51 µg/g.

Q: And the concentration in cortex [3]?
A: The concentration in cortex was 10.4 µg/g.

Q: And the “concentration in olfactory bulb” value [3]?
A: Its value is 28.5 µg/g.

Q: Which “toxicity observed in primate studies” value [4] does the source give for `O=C(O)CCC(CCCS)C(=O)O` (stereo not shown) [2-MPPA, 2-(3-mercaptopropyl)pentane-dioic acid] here?
A: Its value is “membranoproliferative glomerular nephritis; also recorded: immunological toxicities”.

Q: What does the source list for `O=C(O)CCC(CP(=O)(O)O)C(=O)O` (racemic) [2-PMPA, 2-(phosphonomethyl)-pentanedioic acid]?
A: concentration at 1 h ([1]; read-out: concentration in cerebellum): 2130 ng/g; concentration at 1 h ([1]; read-out: concentration in cortex): 10300 ng/g; concentration at 1 h ([1]; read-out: concentration in olfactory bulb): 31200 ng/g; plasma AUC0-t [5]: 52300 ng·h/mL; Kp ([5]; cerebellum, read-out: brain tissue to plasma ratio based on AUCs, cerebellum): 0.1; Kp ([5]; cortex, read-out: brain tissue to plasma ratio based on AUCs, cortex): 0.71; Kp ([5]; olfactory bulb, read-out: brain tissue to plasma ratio based on AUCs, olfactory bulb): 1.49; share of 2-PMPA reaching the brain accounted from the plasma 2-PMPA ([6]; i.n. route, pooled plasma and brain data from i.p. and i.n.): 2%; Kp ([6]; male, Wistar, rat, brain, intraperitoneal, 30 mg/kg, following systemic administration, read-out: brain-to-plasma ratio): ≤ 0.02; fold improvement in brain-to-plasma ratio, intranasal versus intraperitoneal ([6]; male, Wistar, rat, brain, other: intranasal, 30 mg/kg, intranasal versus other route, read-out: improvement in the brain-to-plasma ratio when administered through an intranasal route): 100; Kp ([6]; male, Wistar, rat, olfactory bulb, cortex and cerebellum, ip, 30 mg/kg, rat, 30 mg/kg i.p., olfactory bulb, cortex and cerebellum, read-out: brain tissue to plasma ratio based on AUCs (AUC0-t, brain/AUC0-t, plasma)): < 0.02; AUC0-t cerebellum ([6]; rat, 30 mg/kg i.n.): 5.27 µg·h/g; AUC0-t cortex ([6]; rat, 30 mg/kg i.n.): 37.7 µg·h/g; AUC0-t olfactory bulb ([6]; rat, 30 mg/kg i.n.): 78.1 µg·h/g; plasma Cmax ([6]; rat, 30 mg/kg i.n.): 24700 ng/mL; AUC0-t cerebellum ([6]; rat, 30 mg/kg i.p.): 0.80 µg·h/g; AUC0-t cortex ([6]; rat, 30 mg/kg i.p.): 0.84 µg·h/g; AUC0-t olfactory bulb ([6]; rat, 30 mg/kg i.p.): 1.15 µg·h/g; AUC0-t plasma ([6]; rat, 30 mg/kg i.p.): 50300 ng·h/mL; apparent clearance ([6]; rat, 30 mg/kg i.p.): 9.71 mL/min/kg; apparent volume of distribution ([6]; rat, 30 mg/kg i.p.): 0.82 L/kg; peak plasma concentration (Cmax) ([6]; rat, 30 mg/kg i.p.): 49500 ng/mL; elimination t1/2 ([6]; rat, 30 mg/kg i.p., plasma): 59.4 min; CSF concentration versus the IC50 ([7]; i.n.): > 100 fold; concentration at 0.5 h ([7]; male, CSF, other: intranasal, 100 mg, CSF concentration, 100 mg total i.n.): 320 ng/mL and ~1.5 µM; inhibition of GCP-II activity in cerebellum (GCP-II; [8]): 70%±5%; inhibition of GCP-II activity in cortex (GCP-II; [8]): 100%; inhibition of GCP-II activity in olfactory bulb (GCP-II; [8]): 100%; inhibition of brain GCP-II enzymatic activity ex-vivo (GCP-II; i.n. administration, summary statement): complete inhibition

Reference: patent US20230075584A1, “INTRANASAL ADMINISTRATION OF GLUTAMATE CARBOXYPEPTIDASE (GCP-II) INHIBITORS” (The Johns Hopkins University, priority 2015, published 2023)
